The values that follow come from the supplement of paper PMC11208160.

The series can be described thus: recombinant barcode read abundance after kanamycin selection (control-corrected) (log10(CPM+1)); higher = more efficient recombination; sequences stand for … in AGTGCAGAGAAAATCGGCCAGTTTTCTCTGCCTGCAGTCCGCATGCCGT…ATTTATGCAGCGGACTGCCTTTCTCCCAAAGTGATAAACCGGACAGTATCATGGACCGGTTTTCCCGGTAATCCGTATTTGCAAGGTTGGTTTCACT; site = the 11-nt target. The protocol:
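Same pooled E. coli target screen (IS621 bridge recombinase, kanamycin selection, control-corrected CPM, mean of 2 biological replicates). Here the two core-binding nucleotides of the LTG and RTG of the bridge RNA target-binding loop are mutated. Target and donor CT cores are held constant, and the other 9 guide positions match the target. The target is read from the library oligo sequence. Molecule = full bridge RNA written as DNA: nt 1-80 from the library oligo, rest WT scaffold.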
For the sequence “AAACAGTCGTGGGTTCTAACCTGTTGCCTAG [AAACAGTCTAG_LTGcore_CG_RTGcore_CT] (site AAACAGTCTAG) (LTG core: CG, RTG core: CT)”, the “recombinant barcode read abundance (log10)” value stood at 1.17.

With “AAACAGTCTTGGGTTCTAACCTGTTGCCTAA [AAACAGTCTAG_LTGcore_CT_RTGcore_TT] (site AAACAGTCTAG) (LTG core: CT, RTG core: TT)”, the “recombinant barcode read abundance (log10)” value worked out at 1.55.

With “AAACAGTCTTGGGTTCTAACCTGTTGCCTCT [AAACAGTCTAG_LTGcore_CT_RTGcore_AG] (site AAACAGTCTAG) (LTG core: CT, RTG core: AG)”, the “recombinant barcode read abundance (log10)” value worked out at 1.72.

Regarding “AAACAGTCTTGGGTTCTAACCTGTTGCCTTC [AAACAGTCTAG_LTGcore_CT_RTGcore_GA] (site AAACAGTCTAG) (LTG core: CT, RTG core: GA)”, the “recombinant barcode read abundance (log10)” value was found to be 1.45.

“AAACAGTTATGGGTTCTAACCTGTTGCCTAG [AAACAGTCTAG_LTGcore_TA_RTGcore_CT] (site AAACAGTCTAG) (LTG core: TA, RTG core: CT)”: the “recombinant barcode read abundance (log10)” value was found to be 0.0345.

For “AAACAGTTATGGGTTCTAACCTGTTGCCTTA [AAACAGTCTAG_LTGcore_TA_RTGcore_TA] (site AAACAGTCTAG) (LTG core: TA, RTG core: TA)”, the “recombinant barcode read abundance (log10)” value was 0.0835.

Turning to “AAACATGATTGGGTTCTAACCTGTTGCCTAG [AAACATGCTAG_LTGcore_AT_RTGcore_CT] (site AAACATGCTAG) (LTG core: AT, RTG core: CT)”, the “recombinant barcode read abundance (log10)” value is 0.372.

Consider “AAACATGCCTGGGTTCTAACCTGTTGCCTAG [AAACATGCTAG_LTGcore_CC_RTGcore_CT] (site AAACATGCTAG) (LTG core: CC, RTG core: CT)”, for which the “recombinant barcode read abundance (log10)” value is 0.55.

As for “AAACATGCCTGGGTTCTAACCTGTTGCCTGG [AAACATGCTAG_LTGcore_CC_RTGcore_CC] (site AAACATGCTAG) (LTG core: CC, RTG core: CC)”, the “recombinant barcode read abundance (log10)” value stood at 0.107.

Regarding “AAACATGGGTGGGTTCTAACCTGTTGCCTAG [AAACATGCTAG_LTGcore_GG_RTGcore_CT] (site AAACATGCTAG) (LTG core: GG, RTG core: CT)”, the “recombinant barcode read abundance (log10)” value came out at 0.427.

Turning to “AAACATGGTTGGGTTCTAACCTGTTGCCTAC [AAACATGCTAG_LTGcore_GT_RTGcore_GT] (site AAACATGCTAG) (LTG core: GT, RTG core: GT)”, the “recombinant barcode read abundance (log10)” value was 0.108.

For “AAACATGTATGGGTTCTAACCTGTTGCCTAG [AAACATGCTAG_LTGcore_TA_RTGcore_CT] (site AAACATGCTAG) (LTG core: TA, RTG core: CT)”, the “recombinant barcode read abundance (log10)” value was 0.0615.

For “AAACATGTCTGGGTTCTAACCTGTTGCCTAG [AAACATGCTAG_LTGcore_TC_RTGcore_CT] (site AAACATGCTAG) (LTG core: TC, RTG core: CT)”, the “recombinant barcode read abundance (log10)” value is 0.0742.

Turning to “AAACATGTCTGGGTTCTAACCTGTTGCCTGA [AAACATGCTAG_LTGcore_TC_RTGcore_TC] (site AAACATGCTAG) (LTG core: TC, RTG core: TC)”, the “recombinant barcode read abundance (log10)” value was found to be 0.0728.

Regarding “ACGGGACACTGGGTTCTAACCTGTTGCAGAG [ACGGGACCTCT_LTGcore_AC_RTGcore_CT] (site ACGGGACCTCT) (LTG core: AC, RTG core: CT)”, the “recombinant barcode read abundance (log10)” value was determined as 0.0883.

In the case of “ACGGGACACTGGGTTCTAACCTGTTGCAGGT [ACGGGACCTCT_LTGcore_AC_RTGcore_AC] (site ACGGGACCTCT) (LTG core: AC, RTG core: AC)”, the “recombinant barcode read abundance (log10)” value was 0.0869.

Take “ACGGGACCTTGGGTTCTAACCTGTTGCAGAG [ACGGGACCTCT_LTGcore_CT_RTGcore_CT] (site ACGGGACCTCT) (LTG core: CT, RTG core: CT)”: the “recombinant barcode read abundance (log10)” value came to 2.63.

Turning to “ACGGGACCTTGGGTTCTAACCTGTTGCAGCC [ACGGGACCTCT_LTGcore_CT_RTGcore_GG] (site ACGGGACCTCT) (LTG core: CT, RTG core: GG)”, the “recombinant barcode read abundance (log10)” value was 1.11.

Turning to “ACGGGACCTTGGGTTCTAACCTGTTGCAGCG [ACGGGACCTCT_LTGcore_CT_RTGcore_CG] (site ACGGGACCTCT) (LTG core: CT, RTG core: CG)”, the “recombinant barcode read abundance (log10)” value stood at 0.0844.

In the case of “ACGGGACCTTGGGTTCTAACCTGTTGCAGGG [ACGGGACCTCT_LTGcore_CT_RTGcore_CC] (site ACGGGACCTCT) (LTG core: CT, RTG core: CC)”, the “recombinant barcode read abundance (log10)” value was found to be 0.931.

As to “ACGGGACCTTGGGTTCTAACCTGTTGCAGTA [ACGGGACCTCT_LTGcore_CT_RTGcore_TA] (site ACGGGACCTCT) (LTG core: CT, RTG core: TA)”, the “recombinant barcode read abundance (log10)” value came to 0.818.

For the sequence “ACGGGACCTTGGGTTCTAACCTGTTGCAGTG [ACGGGACCTCT_LTGcore_CT_RTGcore_CA] (site ACGGGACCTCT) (LTG core: CT, RTG core: CA)”, the “recombinant barcode read abundance (log10)” value came to 0.172.

“ACGGGACGATGGGTTCTAACCTGTTGCAGTC [ACGGGACCTCT_LTGcore_GA_RTGcore_GA] (site ACGGGACCTCT) (LTG core: GA, RTG core: GA)”: the “recombinant barcode read abundance (log10)” value came to 0.229.

On to “ACGGGACGGTGGGTTCTAACCTGTTGCAGCC [ACGGGACCTCT_LTGcore_GG_RTGcore_GG] (site ACGGGACCTCT) (LTG core: GG, RTG core: GG)”, for which the “recombinant barcode read abundance (log10)” value is 0.12.

As to “AGGAGGTACTGGGTTCTAACCTGTTGCCTAG [AGGAGGTCTAG_LTGcore_AC_RTGcore_CT] (site AGGAGGTCTAG) (LTG core: AC, RTG core: CT)”, the “recombinant barcode read abundance (log10)” value turned out to be 0.105.

“AGGAGGTCTTGGGTTCTAACCTGTTGCCTAA [AGGAGGTCTAG_LTGcore_CT_RTGcore_TT] (site AGGAGGTCTAG) (LTG core: CT, RTG core: TT)”: the “recombinant barcode read abundance (log10)” value was determined as 0.203.

For “AGGAGGTCTTGGGTTCTAACCTGTTGCCTAG [AGGAGGTCTAG_LTGcore_CT_RTGcore_CT] (site AGGAGGTCTAG) (LTG core: CT, RTG core: CT)”, the “recombinant barcode read abundance (log10)” value was 1.59.

Consider “AGGAGGTCTTGGGTTCTAACCTGTTGCCTAT [AGGAGGTCTAG_LTGcore_CT_RTGcore_AT] (site AGGAGGTCTAG) (LTG core: CT, RTG core: AT)”, for which the “recombinant barcode read abundance (log10)” value was 0.407.

As to “AGGAGGTCTTGGGTTCTAACCTGTTGCCTCA [AGGAGGTCTAG_LTGcore_CT_RTGcore_TG] (site AGGAGGTCTAG) (LTG core: CT, RTG core: TG)”, the “recombinant barcode read abundance (log10)” value amounted to 0.322.

As to “AGGAGGTCTTGGGTTCTAACCTGTTGCCTCG [AGGAGGTCTAG_LTGcore_CT_RTGcore_CG] (site AGGAGGTCTAG) (LTG core: CT, RTG core: CG)”, the “recombinant barcode read abundance (log10)” value is 0.386.

Take “AGGAGGTCTTGGGTTCTAACCTGTTGCCTGT [AGGAGGTCTAG_LTGcore_CT_RTGcore_AC] (site AGGAGGTCTAG) (LTG core: CT, RTG core: AC)”: the “recombinant barcode read abundance (log10)” value was found to be 0.126.

“AGGAGGTTCTGGGTTCTAACCTGTTGCCTGA [AGGAGGTCTAG_LTGcore_TC_RTGcore_TC] (site AGGAGGTCTAG) (LTG core: TC, RTG core: TC)”: the “recombinant barcode read abundance (log10)” value was found to be 0.0288.

“AGGCCTCAATGGGTTCTAACCTGTTGCCTTT [AGGCCTCCTAG_LTGcore_AA_RTGcore_AA] (site AGGCCTCCTAG) (LTG core: AA, RTG core: AA)”: the “recombinant barcode read abundance (log10)” value amounted to 0.0414.

For “AGGCCTCACTGGGTTCTAACCTGTTGCCTAG [AGGCCTCCTAG_LTGcore_AC_RTGcore_CT] (site AGGCCTCCTAG) (LTG core: AC, RTG core: CT)”, the “recombinant barcode read abundance (log10)” value turned out to be 0.134.

Take “AGGCCTCAGTGGGTTCTAACCTGTTGCCTCT [AGGCCTCCTAG_LTGcore_AG_RTGcore_AG] (site AGGCCTCCTAG) (LTG core: AG, RTG core: AG)”: the “recombinant barcode read abundance (log10)” value stood at 0.182.

For “AGGCCTCCCTGGGTTCTAACCTGTTGCCTAG [AGGCCTCCTAG_LTGcore_CC_RTGcore_CT] (site AGGCCTCCTAG) (LTG core: CC, RTG core: CT)”, the “recombinant barcode read abundance (log10)” value is 0.293.

On to “AGGCCTCCTTGGGTTCTAACCTGTTGCCTCA [AGGCCTCCTAG_LTGcore_CT_RTGcore_TG] (site AGGCCTCCTAG) (LTG core: CT, RTG core: TG)”, for which the “recombinant barcode read abundance (log10)” value came out at 0.154.

For “AGGCCTCCTTGGGTTCTAACCTGTTGCCTGC [AGGCCTCCTAG_LTGcore_CT_RTGcore_GC] (site AGGCCTCCTAG) (LTG core: CT, RTG core: GC)”, the “recombinant barcode read abundance (log10)” value is 0.112.

As to “AGGCCTCCTTGGGTTCTAACCTGTTGCCTGG [AGGCCTCCTAG_LTGcore_CT_RTGcore_CC] (site AGGCCTCCTAG) (LTG core: CT, RTG core: CC)”, the “recombinant barcode read abundance (log10)” value turned out to be 0.337.

In the case of “AGGCCTCCTTGGGTTCTAACCTGTTGCCTTG [AGGCCTCCTAG_LTGcore_CT_RTGcore_CA] (site AGGCCTCCTAG) (LTG core: CT, RTG core: CA)”, the “recombinant barcode read abundance (log10)” value came to 0.722.

Turning to “AGGCCTCGGTGGGTTCTAACCTGTTGCCTCC [AGGCCTCCTAG_LTGcore_GG_RTGcore_GG] (site AGGCCTCCTAG) (LTG core: GG, RTG core: GG)”, the “recombinant barcode read abundance (log10)” value came to 0.0521.
